Data from patent publication US12239134B2, “Plant antimicrobial compositions including an emulsifier and/or ozone and methods of use” (Arizona Board of Regents on Behalf of The University of …, priority 2018, dated 2025).
Like-named read-outs stand apart in the source and are kept apart here.

What was measured:
[1] = tested on: S. Newport; details: used alone, previous work, cited from earlier work
[2] = tested on: Salmonella Newport; test: Biofilm formation on food contact surface coupons, direct plating; assay type: cell-based, Salmonella enterica; details: two-minute treatment
Description: A protocol based on direct plating was also evaluated for testing the biofilm formation by Salmonella or L. monocytogenes. Biofilms were formed on three different food contact surface coupons (HDPE, Buna-N rubber, and 316 stainless steel) for up to 3 days in 35 mm mini-petri dishes. Biofilms were formed using a 1:10 diluted TSB solution (10 mL) with either S. enterica or L. monocytogenes inoculum (100 μL). The diluted TSB was changed every 16-18 hours with new 1:10 diluted TSB (10 mL). Coupons were removed for sampling and enumeration of strongly attached bacteria at three different time points (Day 0, 1, and 3). The coupons were rinsed with deionized water five times to remove planktonic cells. Then the coupons were immersed in 10 mL of BPW. The coupons were sonicated for 2 minutes using different settings (Tables 11 and 12) for each organism. After sonication, the solution was serially diluted and plated on Tryptic Soy Agar (TSA). Plates were incubated at 37° C. for 24-48 hours. The colonies were counted and the colony forming units were determined for the various sonication settings, so that the appropriate setting with the most recovery could be determined. […] These settings were used in further experiments to recover the bacterial cells from coupons during sampling and enumeration (by spread plating) of the bacteria in biofilms.
The reduction in bacterial biofilm formation was also tested using a direct plating method. Biofilms were formed on six different food contact surface coupons (HDPE, Buna-N rubber, PC, PVC, and stainless steel 304 and 316) in separate 35 mm mini-petri dishes and evaluated at three different time points (Day 0, 1, and 3). Biofilms were formed using a 1:10 diluted TSB solution (10 mL) with either S. enterica or L. monocytogenes inoculum (100 μL). The coupons were also washed and treated with antimicrobial solutions containing the plant-based emulsifier and the essential oil/plant extracts at various concentrations. The diluted TSB was changed every 16-18 hours with new 1:10 diluted TSB (10 mL). The coupons were rinsed in the antimicrobial solution before adding them to the petri dishes containing the fresh, diluted TSB. After their specific time points, coupons were removed aseptically using sterile forceps from the petri dish. The coupons were rinsed by submerging in 25 mL of sterile deionized H2O and swirled five times to remove planktonic cells. After rinsing, they were placed into a new petri dish immersed in 10 mL of BPW. The coupons were sonicated for 2 minutes on ice using different settings for each organism. After sonication, the sonicated solution was serially diluted using 0.1% peptone water and spread plated on TSA in duplicate. Plates were incubated overnight at 37° C. for 24-48 hours, after which, the colonies were counted, to establish the efficacy of the antimicrobial solutions (Tables 17-25).

Q: Which results are given for `Cc1ccc(C(C)C)cc1O` [Carvacrol, carvacrol]?
A: reduction of S. Newport on iceberg lettuce ([1]; 0.1%): 1 log CFU/g; reduction of S. Newport on iceberg lettuce ([1]; 0.3%): over 5 log CFU/g; reduction of S. Newport on iceberg lettuce ([1]; 0.5%): over 5 log CFU/g; Survivors of Salmonella Newport on food contact surface ([2]; 0.5% with 0.0001% saponin microemulsion, Day 0, 304 SS): 4.75 Log CFU/mL; Survivors of Salmonella Newport on food contact surface ([2]; 0.5% with 0.0001% saponin microemulsion, Day 0, 316 SS): 4.66 Log CFU/mL; Survivors of Salmonella Newport on food contact surface ([2]; 0.5% with 0.0001% saponin microemulsion, Day 0, Buna N): 4.19 Log CFU/mL; Survivors of Salmonella Newport on food contact surface ([2]; 0.5% with 0.0001% saponin microemulsion, Day 0, HDPE): <1 Log CFU/mL; Survivors of Salmonella Newport on food contact surface ([2]; 0.5% with 0.0001% saponin microemulsion, Day 0, PC): <1 Log CFU/mL; Survivors of Salmonella Newport on food contact surface ([2]; 0.5% with 0.0001% saponin microemulsion, Day 0, PVC): 2.74 Log CFU/mL; Survivors of Salmonella Newport on food contact surface ([2]; 0.5% with 0.0001% saponin microemulsion, Day 1, 304 SS): 4.26 Log CFU/mL; Survivors of Salmonella Newport on food contact surface ([2]; 0.5% with 0.0001% saponin microemulsion, Day 1, 316 SS): 4.42 Log CFU/mL; Survivors of Salmonella Newport on food contact surface ([2]; 0.5% with 0.0001% saponin microemulsion, Day 1, Buna N): 4.65 Log CFU/mL; Survivors of Salmonella Newport on food contact surface ([2]; 0.5% with 0.0001% saponin microemulsion, Day 1, HDPE): <1 Log CFU/mL; Survivors of Salmonella Newport on food contact surface ([2]; 0.5% with 0.0001% saponin microemulsion, Day 1, PC): <1 Log CFU/mL; Survivors of Salmonella Newport on food contact surface ([2]; 0.5% with 0.0001% saponin microemulsion, Day 1, PVC): 4.24 Log CFU/mL; Survivors of Salmonella Newport on food contact surface ([2]; 0.5% with 0.0001% saponin microemulsion, Day 3, 304 SS): <1 Log CFU/mL; Survivors of Salmonella Newport on food contact surface ([2]; 0.5% with 0.0001% saponin microemulsion, Day 3, 316 SS): <1 Log CFU/mL; Survivors of Salmonella Newport on food contact surface ([2]; 0.5% with 0.0001% saponin microemulsion, Day 3, Buna N): <1 Log CFU/mL; Survivors of Salmonella Newport on food contact surface ([2]; 0.5% with 0.0001% saponin microemulsion, Day 3, HDPE): <1 Log CFU/mL; Survivors of Salmonella Newport on food contact surface ([2]; 0.5% with 0.0001% saponin microemulsion, Day 3, PC): <1 Log CFU/mL; Survivors of Salmonella Newport on food contact surface ([2]; 0.5% with 0.0001% saponin microemulsion, Day 3, PVC): <1 Log CFU/mL; Survivors of Salmonella Newport on food contact surface ([2]; 0.7% with 0.0001% saponin microemulsion, Day 0, 304 SS): 4.57 Log CFU/mL; Survivors of Salmonella Newport on food contact surface ([2]; 0.7% with 0.0001% saponin microemulsion, Day 0, 316 SS): 4.24 Log CFU/mL; Survivors of Salmonella Newport on food contact surface ([2]; 0.7% with 0.0001% saponin microemulsion, Day 0, Buna N): 4.44 Log CFU/mL; Survivors of Salmonella Newport on food contact surface ([2]; 0.7% with 0.0001% saponin microemulsion, Day 0, HDPE): 4.24 Log CFU/mL; Survivors of Salmonella Newport on food contact surface ([2]; 0.7% with 0.0001% saponin microemulsion, Day 0, PC): 4.18 Log CFU/mL; Survivors of Salmonella Newport on food contact surface ([2]; 0.7% with 0.0001% saponin microemulsion, Day 0, PVC): 4.63 Log CFU/mL; Survivors of Salmonella Newport on food contact surface ([2]; 0.7% with 0.0001% saponin microemulsion, Day 1, 304 SS): <1 Log CFU/mL; Survivors of Salmonella Newport on food contact surface ([2]; 0.7% with 0.0001% saponin microemulsion, Day 1, 316 SS): <1 Log CFU/mL; Survivors of Salmonella Newport on food contact surface ([2]; 0.7% with 0.0001% saponin microemulsion, Day 1, Buna N): <1 Log CFU/mL; Survivors of Salmonella Newport on food contact surface ([2]; 0.7% with 0.0001% saponin microemulsion, Day 1, HDPE): <1 Log CFU/mL; Survivors of Salmonella Newport on food contact surface ([2]; 0.7% with 0.0001% saponin microemulsion, Day 1, PC): <1 Log CFU/mL; Survivors of Salmonella Newport on food contact surface ([2]; 0.7% with 0.0001% saponin microemulsion, Day 1, PVC): <1 Log CFU/mL; Survivors of Salmonella Newport on food contact surface ([2]; 0.7% with 0.0001% saponin microemulsion, Day 3, 304 SS): <1 Log CFU/mL; Survivors of Salmonella Newport on food contact surface ([2]; 0.7% with 0.0001% saponin microemulsion, Day 3, 316 SS): <1 Log CFU/mL; Survivors of Salmonella Newport on food contact surface ([2]; 0.7% with 0.0001% saponin microemulsion, Day 3, Buna N): <1 Log CFU/mL; Survivors of Salmonella Newport on food contact surface ([2]; 0.7% with 0.0001% saponin microemulsion, Day 3, HDPE): <1 Log CFU/mL; Survivors of Salmonella Newport on food contact surface ([2]; 0.7% with 0.0001% saponin microemulsion, Day 3, PC): <1 Log CFU/mL; Survivors of Salmonella Newport on food contact surface ([2]; 0.7% with 0.0001% saponin microemulsion, Day 3, PVC): <1 Log CFU/mL; Survivors of Salmonella Newport on food contact surface ([2]; 1% with 0.0001% saponin microemulsion, Day 0, 304 SS): <1 Log CFU/mL; Survivors of Salmonella Newport on food contact surface ([2]; 1% with 0.0001% saponin microemulsion, Day 0, 316 SS): <1 Log CFU/mL; Survivors of Salmonella Newport on food contact surface ([2]; 1% with 0.0001% saponin microemulsion, Day 0, Buna N): <1 Log CFU/mL; Survivors of Salmonella Newport on food contact surface ([2]; 1% with 0.0001% saponin microemulsion, Day 0, HDPE): <1 Log CFU/mL; Survivors of Salmonella Newport on food contact surface ([2]; 1% with 0.0001% saponin microemulsion, Day 0, PC): <1 Log CFU/mL; Survivors of Salmonella Newport on food contact surface ([2]; 1% with 0.0001% saponin microemulsion, Day 0, PVC): <1 Log CFU/mL; Survivors of Salmonella Newport on food contact surface ([2]; 1% with 0.0001% saponin microemulsion, Day 1, 304 SS): <1 Log CFU/mL; Survivors of Salmonella Newport on food contact surface ([2]; 1% with 0.0001% saponin microemulsion, Day 1, 316 SS): <1 Log CFU/mL; Survivors of Salmonella Newport on food contact surface ([2]; 1% with 0.0001% saponin microemulsion, Day 1, Buna N): <1 Log CFU/mL; Survivors of Salmonella Newport on food contact surface ([2]; 1% with 0.0001% saponin microemulsion, Day 1, HDPE): <1 Log CFU/mL; Survivors of Salmonella Newport on food contact surface ([2]; 1% with 0.0001% saponin microemulsion, Day 1, PC): <1 Log CFU/mL; Survivors of Salmonella Newport on food contact surface ([2]; 1% with 0.0001% saponin microemulsion, Day 1, PVC): <1 Log CFU/mL; Survivors of Salmonella Newport on food contact surface ([2]; 1% with 0.0001% saponin microemulsion, Day 3, 304 SS): <1 Log CFU/mL; Survivors of Salmonella Newport on food contact surface ([2]; 1% with 0.0001% saponin microemulsion, Day 3, 316 SS): <1 Log CFU/mL; Survivors of Salmonella Newport on food contact surface ([2]; 1% with 0.0001% saponin microemulsion, Day 3, Buna N): <1 Log CFU/mL; Survivors of Salmonella Newport on food contact surface ([2]; 1% with 0.0001% saponin microemulsion, Day 3, HDPE): <1 Log CFU/mL; Survivors of Salmonella Newport on food contact surface ([2]; 1% with 0.0001% saponin microemulsion, Day 3, PC): <1 Log CFU/mL; Survivors of Salmonella Newport on food contact surface ([2]; 1% with 0.0001% saponin microemulsion, Day 3, PVC): <1 Log CFU/mL
